Earlier results in patent EP0517160B1, “Extended-release ophthalmic preparations” (INVERNI DELLA BEFFA S.P.A., priority 1991, dated 1992).

Compound: C=CC1(C)CC(=O)C2(O)C(C)(O1)C(OC(C)=O)C(O)C1C(C)(C)CCC(O)C12C (stereo not drawn) [forskoline, 7β-acetoxy-8,13-epoxy-1α,6β,9α-trihydroxy-labd-14-en-11-one]
- maximum of forskoline that dissolves (poloxamer 407 25% w/v in water, at 5°C): 0.12%
- solubility in water (in words) (water): pratically insoluble in water
